Source: PMC10258794, “To Fold or Not to Fold: Diastereomeric Optimization of an α-Helical Antimicrobial Peptide” (Journal of Medicinal Chemistry, 2023)
In brackets after ≈: the same amount, converted by molar mass. Where two headings read alike, the source gives them in different places. Positions of bridges follow the written chain, without caps; N, C: chain ends. Non-standard residues stand in square brackets, D forms with d. Residues, ends and D or L forms follow the SMILES beside them. *: point of attachment. Heptanoyl(6-Me) = CC(C)CCCCC(=O)*; dDab = NCC[C@@H](N)C(=O)O; Dab = NCC[C@H](N)C(=O)O

Tests used:
[1] = test system: Staphylococcus epidermis; test: MIC broth microdilution, Staphylococcus epidermis; type: cell-based; conditions: pH 7.4
Protocol: (§1) Antimicrobial activity was determined for all peptides on E. coli W3110, P. aeruginosa PAO1, A. baumannii ATCC19606, K. pneumoniae NCTC418, and methicillin-resistant S. aureus COL and for selected peptides on P. aeruginosa PA14 and the polymyxin B-resistant derivatives PA14 4.13, PA14 4.18, and PA14 2P4 as well as the clinical isolates ZEM-1A and ZEM9A, K. pneumoniae OXA-48, Enterobacter cloacae, Stenotrophomonas maltophilia, B. cenocepacia, and Staphylococus epidermis. To determine the MIC, the broth microdilution method was used.[75] A single bacterial colony was grown in LB medium overnight at 37 °C and 180 rpm shaking. The compounds were prepared as stock solutions of 2 mg/mL in sterilized milliQ deionized water, added to the first well of 96-well sterile, polypropylene round-bottom microtiter plates (TPP, untreated, Corning Incorporated, Kennebunk, USA), and diluted serially by 1/2. […] The bacterial inoculum was prepared by measuring the absorbance of the overnight culture, which was diluted to concentration of the bacteria was quantified by measuring absorbance at 600 nm and diluted to an OD600 of 0.022 in MH medium pH 7.4 (Sigma-Aldrich, Buchs, Switzerland). The sample solutions (150 μL) were mixed with 4 μL of diluted bacterial suspension with a final inoculation of about 5 × 10^5 CFU. For each test, two columns of the plate were kept for sterility control (MH medium only) and growth control (MH medium with bacterial inoculum, no compound). […] The plates were incubated at 37 °C for 16–20 h under static conditions. 15 μL of 3-(4,5-dimethylthiazol-2-yl)-2,5-diphenyltetrazolium bromide (MTT)[76] (1 mg/mL in sterilized milliQ deionized water) was added to each well, and the plates were incubated at room temperature until MTT staining was completed. The MIC was defined as the lowest concentration of the dendrimer that inhibits the visible growth of the tested bacteria (yellow) with the unaided eye.

[2] = test system: K. pneumoniae Oxa-48; test: MIC broth microdilution, K. pneumoniae Oxa-48; type: cell-based, Klebsiella pneumoniae
Protocol: as §1

[3] = test system: A. baumannii ATCC19606
Protocol: as §1

[4] = test system: E. coli W3110; conditions: MH broth pH 7.4, 16–20 h, 37 °C
Protocol: as §1

[5] = test system: K. pneumoniae NCTC418
Protocol: as §1

[6] = test system: P. aeruginosa PAO1
Protocol: as §1

[7] = test system: S. aureus COL MRSA; conditions: for MIC S. aureus COL MRSA: MH broth pH 7.4, 16–20 h, 37 °C; for MIC S. aureus COL: supplementary CSV, ranges of Table 1 given as one number
Protocol: as §1

[8] = test system: S. aureus Newman
[9] = test system: A549 cells; test: Alamar blue cytotoxicity, A549; type: cell-based, human; conditions: 24 h, mean ± SD, n = 3, read-out: Toxicity on A549 lung cancern cells
Protocol: (§2) The A549 human lung adenocarcinoma cells are derived from a patient and were kindly given to us by Dr. Georgia Konstatinidou (Pharmacology Institute, Bern University). HEK293T cells were obtained from ATCC (CRL-11268). A549 and HEK293 were cultured in an incubator at 37 °C with 5% CO2 in RPMI-1640 (Gibco) and DMEM (Gibco) containing 10% fetal bovine serum (Thermo Fisher), 100 I.U./mL penicillin, and 100 μg/mL streptomycin (Gibco).
(§3) The viability of the cells was assessed with an AlamarBlue assay (ThermoFisher). Cells were seeded into 96-well plates, 4000 cells/well (HEK293) and 8000 cells/well (A549), the day before the experiment. Cells were then treated with the increasing concentration of the compound and incubated for 24 h at 37 °C in the presence of 5% CO2. The next day, the medium was removed and replaced by a 10% AlamarBlue solution in full growth medium (DMEM or RPMI-1640). The cells were incubated for 3–5 h at 37 °C with 5% CO2 in a humidified atmosphere. The fluorescence was then measured on a Tecan Infinite M1000 Pro plate reader at λex 560 nm and λem 590 nm. The value was normalized according to the untreated cells.

[10] = test system: PA14 4.13 (phoQ); test: microbe, parasite or virus in culture
Protocol: as §1

[11] = test system: PA14 2P4 (pmrB); test: microbe, parasite or virus in culture
Protocol: as §1

[12] = test system: P. aeruginosa ZEM-1A; test: microbe, parasite or virus in culture
Protocol: as §1

[13] = test system: P. aeruginosa PA14; test: microbe, parasite or virus in culture
Protocol: as §1

[14] = test system: Enterobacter cloacae; test: microbe, parasite or virus in culture
Protocol: as §1

[15] = test system: Burkolderia cenocepacia; test: microbe, parasite or virus in culture
Protocol: as §1

[16] = test system: PA14 4.18 (pmrB); test: microbe, parasite or virus in culture
Protocol: as §1

[17] = test system: Stenotrophomonas maltophilia; test: microbe, parasite or virus in culture; type: cell-based
Protocol: as §1

[18] = test system: HEK293 cells; test: Alamar blue cytotoxicity, HEK293; type: cell-based, human; conditions: 24 h, mean ± SD, n = 3, read-out: Toxicity on HEK293 cells
Protocol: as §2, §3

[19] = EYPC vesicle leakage assay; type: biochemical; conditions: 10 μg/mL of compound; 10 mM TRIS, 107 mM NaCl, pH 7.4
Protocol: 5(6)-carboxyfluorescein (CF) was purchased from Sigma. EYPC, EYPG, and a Mini-Extruder were purchased from Avanti Polar Lipids. Egg PC or Egg PG thin lipid layers were prepared by evaporating a solution of 100 mg of EYPC or EYPG in 4 mL of MeOH/CHCl3 (1:1) on a rotary evaporator at room temperature and then dried in vacuo overnight. […] Extravesicular components were removed by gel filtration (Sephadex G-50) with 10 mM TRIS, 107 mM NaCl, pH 7.4 buffer. Final conditions: ∼2.5 mM PC or PG; inside: 50 mM CF, 10 mM TRIS, 10 mM NaCl, pH 7.4 buffer; outside: 10 mM TRIS, 107 mM NaCl, pH 7.4. […] The CF efflux was monitored at λem 517 nm (λex 492 nm) as a function of time after addition of the desired volume of peptide from 2 mg/mL stock in mQ water at t = 45 s, 10 and 50 μg/mL were monitored for both EYPC and EYPG. […] Fluorescence intensities were then normalized to the maximal emission intensity using I(t) = (It – I0)/(I∞ – I0) where I0 = It at peptide addition, I∞ = It at saturation of lysis.

[20] = test system: P. aeruginosa ZEM9A; test: microbe, parasite or virus in culture; type: cell-based, Pseudomonas aeruginosa; conditions: Pseudomonas aeruginosa, ZEM9A; MDR strain; MH broth pH 7.4, 16–20 h, 37 °C
Protocol: as §1

[21] = MDR strain, MH broth pH 7.4, 16–20 h, 37 °C
[22] = MH broth pH 7.4, 16–20 h, 37 °C
[23] = supplementary CSV, ranges of Table 1 given as one number

With `CC(C)C[C@H](NC(=O)[C@H](CC(C)C)NC(=O)[C@H](CC(C)C)NC(=O)[C@H](CCCCN)NC(=O)[C@H](CC(C)C)NC(=O)[C@H](CC(C)C)NC(=O)[C@@H](CCCCN)NC(=O)[C@H](CC(C)C)NC(=O)[C@H](CC(C)C)NC(=O)[C@@H](CCCCN)NC(=O)[C@@H](N)CCCCN)C(N)=O` [HP3, KkLLkLLKLLL] the “MIC Staphylococcus epidermis” value [1] was 4 µg/mL (≈ 3.03 µM), the “MIC K. pneumoniae Oxa-48” value [2, 21] was 4 µg/mL (≈ 3.03 µM) and the “MIC A. baumannii ATCC19606” value [3, 22] was 2 µg/mL (≈ 1.51 µM). For the same compound, the “MIC A. baumannii ATCC19606” value [3, 23] was 2 µg/mL (≈ 1.51 µM), the “MIC E. coli W3110” value [4] was 2 µg/mL (≈ 1.51 µM) and the “MIC K. pneumoniae NCTC418” value [5, 22] was 8 µg/mL (≈ 6.05 µM). For the same compound, the “MIC K. pneumoniae NCTC418” value [5, 23] was 8 µg/mL (≈ 6.05 µM), the “MIC P. aeruginosa PAO1” value [6, 22] was 4 µg/mL (≈ 3.03 µM) and the “MIC P. aeruginosa PAO1” value [6, 23] was 4 µg/mL (≈ 3.03 µM). The “MIC S. aureus COL MRSA” value [7] was 2 to 4 µg/mL, the “MIC S. aureus COL” value [7] was 3 µg/mL (≈ 2.27 µM) and the “MIC S. aureus Newman” value [8, 22] was 2 µg/mL (≈ 1.51 µM). The “MIC S. aureus Newmann” value ([8]; supplementary CSV) was 2 µg/mL (≈ 1.51 µM), the IC50 [9] was 5.4 ± 4.4 µM and the “MIC P. aeruginosa PA14 4.13” value ([10]; supplementary CSV) was 8 µg/mL (≈ 6.05 µM). For the same compound, the “MIC P. aeruginosaPA14 2P4” value ([11]; supplementary CSV) was 32 µg/mL (≈ 24.2 µM), the “MIC ZEM-1A” value ([12]; pH 7.4) was 2 µg/mL (≈ 1.51 µM) and the “MIC PA14” value [13, 22] was 4 µg/mL (≈ 3.03 µM). For the same compound, the “MIC P. aeruginosa PA14” value ([13]; supplementary CSV) was 4 µg/mL (≈ 3.03 µM), the “MIC Enterobacter cloacae” value ([14]; pH 7.4) was 4 µg/mL (≈ 3.03 µM) and the “MIC Burkolderia cenocepacia” value [15, 21] was greater than 64 µg/mL. For the same compound, the “MIC B. cenocepacia” value ([15]; supplementary CSV) was greater than 64 µg/mL, the “MIC P. aeruginosa PA14 4.18” value ([16]; supplementary CSV) was 32 µg/mL (≈ 24.2 µM) and the “MIC Stenotrophomonas maltophilia” value ([17]; pH 7.4) was 4 µg/mL (≈ 3.03 µM). It also gave an IC50 [18] of 69 ± 2.6 µM.
In the case of `CC(C)C[C@H](NC(=O)[C@H](CC(C)C)NC(=O)[C@H](CC(C)C)NC(=O)[C@@H](CCCCN)NC(=O)[C@@H](CC(C)C)NC(=O)[C@@H](CC(C)C)NC(=O)[C@@H](CCCCN)NC(=O)[C@@H](CC(C)C)NC(=O)[C@H](CC(C)C)NC(=O)[C@H](CCCCN)NC(=O)[C@@H](N)CCCCN)C(N)=O` [HP29, KKLlkllkLLL], the “MIC A. baumannii ATCC19606” value [3, 22] is reported as 8 µg/mL (≈ 6.05 µM), the “MIC A. baumannii ATCC19606” value [3, 23] is reported as 8 µg/mL (≈ 6.05 µM) and the “MIC E. coli W3110” value [4] is reported as 2 µg/mL (≈ 1.51 µM). The “MIC K. pneumoniae NCTC418” value [5, 22] was 64 µg/mL (≈ 48.4 µM), the “MIC K. pneumoniae NCTC418” value [5, 23] was 64 µg/mL (≈ 48.4 µM) and the “MIC P. aeruginosa PAO1” value [6, 22] was 4 µg/mL (≈ 3.03 µM). The “MIC P. aeruginosa PAO1” value [6, 23] was 4 µg/mL (≈ 3.03 µM), the “MIC S. aureus COL MRSA” value [7] was 32 µg/mL (≈ 24.2 µM) and the “MIC S. aureus COL” value [7] was 32 µg/mL (≈ 24.2 µM). For the same compound, the “EYPC vesicle leakage (%)” value [19] was 6%.
`CC(C)CCCCC(=O)N[C@@H](CCN)C(=O)N[C@H](C(=O)N[C@@H](CCN)C(=O)N[C@H]1CCNC(=O)[C@H]([C@@H](C)O)NC(=O)[C@H](CCN)NC(=O)[C@H](CCN)NC(=O)[C@H](CC(C)C)NC(=O)[C@@H](Cc2ccccc2)NC(=O)[C@@H](CCN)NC1=O)[C@@H](C)O` [Pol B, polymyxin B, reference compound] ({Heptanoyl(6-Me)}-[Dab]T[Dab][Dab][dDab][dF]L[Dab][Dab]T; lactam 4-C) gave an MIC ([2]; Klebsiella pneumoniae, OXA48, pH 7.4, read-out: MIC K. pneumoniae Oxa-48) of 2 µg/mL (≈ 1.68 µM), an MIC ([10]; Pseudomonas aeruginosa, PA14, pH 7.4, read-out: MIC PA14 4.13 (phoQ)) of 0.25 µg/mL (≈ 0.21 µM) and an MIC ([11]; Pseudomonas aeruginosa, PA14, pH 7.4, read-out: MIC PA14 2P4 (pmrB)) of 1 µg/mL (≈ 0.841 µM). The MIC ([12]; Pseudomonas aeruginosa, ZEM1A, pH 7.4, read-out: MIC ZEM-1A) was less than 0.125 µg/mL, the MIC ([13]; Pseudomonas aeruginosa, PA14, pH 7.4, read-out: MIC PA14) was less than 0.125 µg/mL and the MIC ([14]; Enterobacter cloacae, pH 7.4, read-out: MIC Enterobacter cloacae) was 1 µg/mL (≈ 0.841 µM). For the same compound, the MIC ([15]; Burkholderia cenocepacia, pH 7.4, read-out: MIC Burkolderia cenocepacia) was greater than 16 µg/mL, the MIC ([16]; Pseudomonas aeruginosa, PA14, pH 7.4, read-out: MIC PA14 4.18 (pmrB)) was 1 µg/mL (≈ 0.841 µM) and the MIC ([17]; Stenotrophomonas maltophilia, MDR strain, MH broth pH 7.4, 16–20 h, 37 °C) was 0.5 µg/mL (≈ 0.42 µM). It also gave an MIC [20] of 2 µg/mL (≈ 1.68 µM).
